Measured values published in patent US20210205638A1, “PARATHYROID HORMONE AND REGENERATION OF DEGENERATIVE DISCS DISEASE” (THE JOHNS HOPKINS UNIVERSITY, priority 2017, published 2021).

How the values were obtained:
NP cells [1] = experiment: Western blot of pCREB in cultured NP cells; format: cell-based, mouse
Description: Green fluorescent protein (GFP) labeled NP cells of notochordal origin were isolated from 15-day old Noto^Cre/+::ROSA26-lacZ^flox/flox male mice as previously described. The NP cells from 15-day old PTH1R^+/+ and PTH1R^−/−, IFT88^+/+ and IFT88^−/− male mice. Briefly, the cells were isolated from the NP region of IVDs in the spinal column from mid thoracic to lower lumbar region and digested initially with TrypLE Express (Gibco) for 30 minutes on shaker, followed by 0.25 mg/ml Collagense-P (Roche) for another […] at 37° C. The digested cells were washed twice with PBS, and cultured in α-MEM (Gibco) supplemented with 10% fetal calf serum (Atlanta Biologicals), and 1% penicillin—streptomycin (Mediatech) to 80-90% confluence at 37° C., 5% CO2 and 5% O2.
Western blot analyses were conducted on the protein lysates from in vitro cultured NP cells or NP tissues from mice at specific time points after PTH (1-34) treatment and human at different ages with lumbar disc degeneration. The protein extract was centrifuged, the concentration of supernatant evaluated by DC protein assay (Bio-Rad Laboratories), and then separated by SDS-PAGE and blotted on a polyvinylidene fluoride membrane (Bio-Rad Laboratories). Following incubation in specific antibodies, we detected proteins using an enhanced chemiluminescence kit (Amersham Biosciences). […]

NP cells [2] = experiment: pCREB immunostaining of IVD sections at time points after PTH treatment; format: in vivo, mouse
Description: For immunocytochemical staining, we incubated GFP labeled NP cells co-stained with primary antibody to rabbit PTH1R PRB-635P (Covance, 1:100) for 1 h and subsequently stained with secondary antibodies conjugated with fluorescence at room temperature. At the time of euthanasia, we dissected and fixed the lumbar vertebral spine in 10% buffered formalin for 48 h, decalcified them in 10% EDTA (pH 7.4) for 14-21 days and embedded them in paraffin or optimal cutting temperature (OCT) compound (Sakura Finetek). Fourmicrometer-thick coronal-oriented sections of the L1-L6 spine were processed for safranin O and fast green staining. […] For immunofluorescent assay, the slides were incubated with secondary antibodies conjugated with fluorescence at room temperature for 1 h while avoiding light. […]
Quantitative histomorphometric analysis was conducted in a blinded fashion with Image-Pro Plus Software version 6.0 (Media Cybernetics Inc). […] Five randomly selected sections per mice in each group at L3-L4 level were chosen for quantitative histomorphometric analysis. […] The percentage area of CCN2 and ACAN positive staining was calculated by measuring the positive area to the whole area of the L3-L4 in each group.

NP tissues = experiment: Western blot of pSmad2 in NP tissue of aged mice; format: in vivo, mouse; conditions: NP tissues of 18-month-old mice
Description: Western blot analyses were conducted on the protein lysates from in vitro cultured NP cells or NP tissues from mice at specific time points after PTH (1-34) treatment and human at different ages with lumbar disc degeneration. The protein extract was centrifuged, the concentration of supernatant evaluated by DC protein assay (Bio-Rad Laboratories), and then separated by SDS-PAGE and blotted on a polyvinylidene fluoride membrane (Bio-Rad Laboratories). Following incubation in specific antibodies, we detected proteins using an enhanced chemiluminescence kit (Amersham Biosciences). We used specific antibodies recognizing rabbit CTGF (CCN2) (Abcam, 1:1000), Aggrecan (ACAN) (Abcan, 1:1000), p-Smad2 (Cell Signaling Technology Inc., 1:1000), Smad2 (Cell Signaling Technology Inc., 1:1000), GAPDH (Cell Signaling Technology Inc., 1:1000), CREB (Abcam, 1:2500), pCREB (Abcam, 1:2500), PTH1R PRB-635P (Covance, 1:100), PTH1R PRB-640P (Covance, 1:500) and goat integrin β6 (Santa Cruz, 1:500) to examine the protein concentrations in the lysates. Co-immunoprecipitation analyses were conducted on the nuclear and cytoplasmic protein extraction using NE-PER Nuclear and Cytoplasmic Extraction Kit (Pierce Thermo Scientific, 78833) from in vitro cultured NP cells treated with PTH (1-34) or vehicle.

SMILES: CC[C@H](C)[C@H](NC(=O)[C@H](CCC(=O)O)NC(=O)[C@H](CO)NC(=O)[C@@H](NC(=O)[C@@H](N)CO)C(C)C)C(=O)N[C@@H](CCC(N)=O)C(=O)N[C@@H](CC(C)C)C(=O)N[C@@H](CCSC)C(=O)N[C@@H](Cc1cnc[nH]1)C(=O)N[C@@H](CC(N)=O)C(=O)N[C@@H](CC(C)C)C(=O)NCC(=O)N[C@@H](CCCCN)C(=O)N[C@@H](Cc1cnc[nH]1)C(=O)N[C@@H](CC(C)C)C(=O)N[C@@H](CC(N)=O)C(=O)N[C@@H](CO)C(=O)N[C@@H](CCSC)C(=O)N[C@@H](CCC(=O)O)C(=O)N[C@@H](CCCN=C(N)N)C(=O)N[C@H](C(=O)N[C@@H](CCC(=O)O)C(=O)N[C@@H](Cc1c[nH]c2ccccc12)C(=O)N[C@@H](CC(C)C)C(=O)N[C@@H](CCCN=C(N)N)C(=O)N[C@@H](CCCCN)C(=O)N[C@@H](CCCCN)C(=O)N[C@@H](CC(C)C)C(=O)N[C@@H](CCC(N)=O)C(=O)N[C@@H](CC(=O)O)C(=O)N[C@H](C(=O)N[C@@H](Cc1cnc[nH]1)C(=O)N[C@@H](CC(N)=O)C(=O)N[C@@H](Cc1ccccc1)C(=O)O)C(C)C)C(C)C [PTH (1-34), teriparatide]
- phosphorylation of CREB (Western blot) (NP cells [1]; at 30 min): induced phosphorylation of CREB
- PTH-enhanced phosphorylation of CREB (NP cells [1]; knockdown of pallidin with siRNA): blocked
- time at which number of pCREB+ cells in NP area peaked (NP cells [2]; after treatment): 1 hour
- number of pCREB+ cells in NP area (NP cells [2]; at 30 minutes after treatment): increased
- pSmad2 (Western blot) (NP tissues): increased
